Experimental data taken from patent US12139499B2, “Heteroaryl compounds for treating Huntington's disease” (PTC THERAPEUTICS, INC., priority 2018, dated 2024).

System: Endogenous Huntingtin Protein
Assay: Endogenous Huntingtin Protein Assay (ELISA-based MSD electrochemiluminescence)
Type: cell-based
Details: Table 1
How it was run: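 Sandwich MSD electrochemiluminescence immunoassay. Capture used MW1 (expanded polyglutamine) or MAB2166 antibody coated at 1 μg/mL overnight at 4 °C. Samples were bound overnight at 4 °C, then a rabbit monoclonal detection antibody and SULFO-TAG anti-rabbit, each at 0.25 μg/mL, were applied for 1 h at room temperature.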

Row | SMILES | IC50 [nM]
1 | Cc1cn2cc(-c3cc4sc(N(C)C5CC6(C)CCC(C)(C5)N6)nc4cn3)cc(C)c2n1 [Compound 299, N-[(1R,3s,5S)-1,5-dimethyl-8-azabicyclo[3.2.1]octan-3-yl]-6-(2,8-dimethylimidazo[1,2-a]pyridin-6-yl)-N-methyl[1,3]thiazolo[4,5-c]pyridin-2-amine] | ≤ 100
2 | Cc1cn2cc(-c3cc4sc(N(C)C5CC6(C)CCC(C)(C5)N6)nc4cn3)ccc2n1 [Compound 300, N-[(1R,3s,5S)-1,5-dimethyl-8-azabicyclo[3.2.1]octan-3-yl]-N-methyl-6-(2-methylimidazo[1,2-a]pyridin-6-yl)[1,3]thiazolo[4,5-c]pyridin-2-amine] | ≤ 100
3 | Cc1nc2c(C#N)cc(-c3cc4sc(N(C)C5CC6(C)CCC(C)(C5)N6)nc4cn3)cc2o1 [Compound 301, 6-(2-{[(1R,3s,5S)-1,5-dimethyl-8-azabicyclo[3.2.1]octan-3-yl](methyl)amino)[1,3]thiazolo[4,5-c]pyridin-6-yl)-2-methyl-1,3-benzoxazole-4-carbonitrile] | ≤ 100
4 | CC[C@]12CC[C@](CC)(CC(N(C)c3nc4cnc(-c5cc(C#N)c6nc(C)cn6c5)nc4s3)C1)N2 (stereo partly drawn) [Compound 303, 6-(2-{[(1R,3r,5S)-1,5-diethyl-8-azabicyclo[3.2.1]octan-3-yl](methyl)amino}[1,3]thiazolo[5,4-d]pyrimidin-5-yl)-2-methylimidazo[1,2-a]pyridine-8-carbonitrile] | ≤ 100
5 | CC[C@]12CC[C@](CC)(CC(N(C)c3nc4cnc(-c5cc(F)c6nc(C)cn6c5)nc4s3)C1)N2 (stereo partly drawn) [Compound 304, N-[(1R,3r,5S)-1,5-diethyl-8-azabicyclo[3.2.1]octan-3-yl]-5-(8-fluoro-2-methylimidazo[1,2-a]pyridin-6-yl)-N-methyl[1,3]thiazolo[5,4-d]pyrimidin-2-amine] | 100 to 500
6 | Cc1csc2nc(-c3cc4sc(N(C)C5CC(C)(C)NC(C)(C)C5)nc4cn3)cn12 [Compound 305] | 500 to 1000
7 | Cc1cn2nc(-c3cc(F)c4nc(OC5CCNCC5)sc4c3)cc(C)c2n1 [Compound 306, 6-{4-fluoro-2-[(piperidin-4-yl)oxy]-1,3-benzothiazol-6-yl}-2,8-dimethylimidazo[1,2-b]pyridazine] | ≤ 100
8 | Cn1cc2cc(-c3cc(F)c4nc(OC5CCNCC5)sc4c3)cc(F)c2n1 [Compound 307, 4-fluoro-6-(7-fluoro-2-methyl-2H-indazol-5-yl)-2-[(piperidin-4-yl)oxy]-1,3-benzothiazole] | ≤ 100
9 | Cc1nn2cc(-c3cc4sc(N(C)C5CC(C)(C)NC(C)(C)C5)nc4cn3)nc2s1 [Compound 308, N-methyl-6-(2-methylimidazo[2,1-b][1,3,4]thiadiazol-6-yl)-N-(2,2,6,6-tetramethylpiperidin-4-yl)[1,3]thiazolo[4,5-c]pyridin-2-amine] | 1000 to 3000
10 | Cc1cn2cc(-c3cc4sc(OC5CC(C)(C)NC(C)(C)C5)nc4cn3)cc(C#N)c2n1 [Compound 309, 2-methyl-6-{2-[(2,2,6,6-tetramethylpiperidin-4-yl)oxy][1,3]thiazolo[4,5-c]pyridin-6-yl}imidazo[1,2-a]pyridine-8-carbonitrile] | ≤ 100
11 | Cc1cn2cc(-c3cc4sc(OC5CC(C)(C)NC(C)(C)C5)nc4cn3)cc(F)c2n1 [Compound 310, 6-(8-fluoro-2-methylimidazo[1,2-a]pyridin-6-yl)-2-[(2,2,6,6-tetramethylpiperidin-4-yl)oxy][1,3]thiazolo[4,5-c]pyridine] | ≤ 100
12 | Cn1cc2cc(-c3cc4sc(OC5CC(C)(C)NC(C)(C)C5)nc4cn3)cc(C#N)c2n1 [Compound 311, 2-methyl-5-{2-[(2,2,6,6-tetramethylpiperidin-4-yl)oxy][1,3]thiazolo[4,5-c]pyridin-6-yl}-2H-indazole-7-carbonitrile] | ≤ 100
13 | Cn1cc2cc(-c3cc4sc(OC5CC(C)(C)NC(C)(C)C5)nc4cn3)cc(F)c2n1 [Compound 312, 6-(7-fluoro-2-methyl-2H-indazol-5-yl)-2-[(2,2,6,6-tetramethylpiperidin-4-yl)oxy][1,3]thiazolo[4,5-c]pyridine] | 100 to 500
14 | Cc1cn2cc(-c3cc4sc(OC5CCNCC5)nc4cn3)cc(C#N)c2n1 [Compound 313, 2-methyl-6-{2-[(piperidin-4-yl)oxy][1,3]thiazolo[4,5-c]pyridin-6-yl}imidazo[1,2-a]pyridine-8-carbonitrile] | 100 to 500
15 | Cc1cn2cc(-c3cc4sc(OC5CCNCC5)nc4cn3)cc(F)c2n1 [Compound 314, 6-(8-fluoro-2-methylimidazo[1,2-a]pyridin-6-yl)-2-[(piperidin-4-yl)oxy][1,3]thiazolo[4,5-c]pyridine] | 100 to 500
16 | Cn1cc2cc(-c3cc4sc(OC5CCNCC5)nc4cn3)cc(C#N)c2n1 [Compound 315, 2-methyl-5-{2-[(piperidin-4-yl)oxy][1,3]thiazolo[4,5-c]pyridin-6-yl}-2H-indazole-7-carbonitrile] | 100 to 500
17 | Cn1cc2cc(-c3cc4sc(OC5CCNCC5)nc4cn3)cc(F)c2n1 [Compound 316, 6-(7-fluoro-2-methyl-2H-indazol-5-yl)-2-[(piperidin-4-yl)oxy][1,3]thiazolo[4,5-c]pyridine] | 100 to 500

Row | SMILES | IC50 [nM]
18 | Cc1cn2cc(-c3cc(F)c4nc(OC5CCNCC5)sc4c3)cc(C#N)c2n1 [Compound 317, 6-{4-fluoro-2-[(piperidin-4-yl)oxy]-1,3-benzothiazol-6-yl}-2-methylimidazo[1,2-a]pyridine-8-carbonitrile] | ≤ 100
19 | Cn1cc2cc(-c3cc(F)c4nc(OC5CCNCC5)sc4c3)cc(C#N)c2n1 [Compound 318, 5-{4-fluoro-2-[(piperidin-4-yl)oxy]-1,3-benzothiazol-6-yl}-2-methyl-2H-indazole-7-carbonitrile] | ≤ 100
20 | Cc1cn2cc(-c3cc(F)c4nc(OC5CCNCC5)sc4c3)cc(C)c2n1 [Compound 319, 6-(2,8-dimethylimidazo[1,2-a]pyridin-6-yl)-4-fluoro-2-[(piperidin-4-yl)oxy]-1,3-benzothiazole] | ≤ 100
21 | Cc1cn2nc(-c3cc(F)c4nc(OC5CCN(C)CC5)sc4c3)cc(C)c2n1 [Compound 320, 6-{4-fluoro-2-[(1-methylpiperidin-4-yl)oxy]-1,3-benzothiazol-6-yl}-2,8-dimethylimidazo[1,2-b]pyridazine] | ≤ 100
22 | CCN1CCC(Oc2nc3c(F)cc(-c4cc(C)c5nc(C)cn5n4)cc3s2)CC1 [Compound 321, 6-{2-[(1-ethylpiperidin-4-yl)oxy]-4-fluoro-1,3-benzothiazol-6-yl}-2,8-dimethylimidazo[1,2-b]pyridazine] | ≤ 100
23 | Cc1cn2cc(-c3cc4sc(N(C)C5CC6(C)CCC(C)(C5)N6)nc4cn3)nc2c(C)n1 [Compound 322, N-[(1R,3s,5S)-1,5-dimethyl-8-azabicyclo[3.2.1]octan-3-yl]-6-(6,8-dimethylimidazo[1,2-a]pyrazin-2-yl)-N-methyl[1,3]thiazolo[4,5-c]pyridin-2-amine] | ≤ 100
24 | Cc1cn2cc(-c3ncc4nc(N(C)[C@H]5C[C@]6(C)CC[C@](C)(C5)N6)sc4n3)cc2c(C)n1 [Compound 323, N-[(1R,3s,5S)-1,5-dimethyl-8-azabicyclo[3.2.1]octan-3-yl]-5-(1,3-dimethylpyrrolo[1,2-a]pyrazin-7-yl)-N-methyl[1,3]thiazolo[5,4-d]pyrimidin-2-amine] | ≤ 100
25 | Cc1cn2cc(-c3ncc4nc(N(C)[C@@H]5CC(C)(C)NC(C)(C)[C@@H]5F)sc4n3)cc(C#N)c2n1 [Compound 324, 6-(2-{[(3R,4R)-3-fluoro-2,2,6,6-tetramethylpiperidin-4-yl](methyl)amino}[1,3]thiazolo[5,4-d]pyrimidin-5-yl)-2-methylimidazo[1,2-a]pyridine-8-carbonitrile] | ≤ 100
26 | Cc1cn2cc(-c3cc4sc(N(C)[C@@H]5CC(C)(C)NC(C)(C)[C@@H]5F)nc4cn3)cc(C#N)c2n1 [Compound 325, 6-(2-{[(3R,4R)-3-fluoro-2,2,6,6-tetramethylpiperidin-4-yl](methyl)amino}[1,3]thiazolo[4,5-c]pyridin-6-yl)-2-methylimidazo[1,2-a]pyridine-8-carbonitrile] | ≤ 100
27 | Cc1cn2cc(-c3cc4sc(N(C)[C@H]5C[C@]6(C)CC[C@@](C)(N6)[C@H]5F)nc4cn3)cc(F)c2n1 [Compound 326] | ≤ 100
28 | CN(c1nc2nnc(-c3ccc(-n4ccnc4)cc3O)cc2s1)C1CCNCC1 [Compound 327, 5-(1H-imidazol-1-yl)-2-{6-[methyl(piperidin-4-yl)amino][1,3]thiazolo[4,5-c]pyridazin-3-yl}phenol] | 100 to 500
29 | CN(c1nc2nnc(-c3cc(F)c(-c4cn[nH]c4)cc3F)cc2s1)C1CCNCC1 [Compound 328, 3-[2,5-difluoro-4-(1H-pyrazol-4-yl)phenyl]-N-methyl-N-(piperidin-4-yl)[1,3]thiazolo[4,5-c]pyridazin-6-amine] | 100 to 500
30 | CN(c1nc2nnc(-c3ccc(-c4c[nH]nc4F)cc3O)cc2s1)C1CCNCC1 [Compound 329, 5-(3-fluoro-1H-pyrazol-4-yl)-2-{6-[methyl(piperidin-4-yl)amino][1,3]thiazolo[4,5-c]pyridazin-3-yl}phenol] | ≤ 100
31 | CN1CCC(N(C)c2nc3nnc(-c4ccc(-c5c[nH]nc5F)cc4O)cc3s2)CC1 [Compound 332, 5-(3-fluoro-1H-pyrazol-4-yl)-2-{6-[methyl(1-methylpiperidin-4-yl)amino][1,3]thiazolo[4,5-c]pyridazin-3-yl}phenol] | ≤ 100
32 | Oc1cc(-c2cn[nH]c2)ccc1-c1cc2sc(N3CCNCC3)nc2nn1 [Compound 334, 2-[6-(piperazin-1-yl)[1,3]thiazolo[4,5-c]pyridazin-3-yl]-5-(1H-pyrazol-4-yl)phenol] | 100 to 500
33 | Oc1cc(-c2cn[nH]c2)ccc1-c1nc2cnc(C3=CCNCC3)cc2s1 [Compound 335, 5-(1H-pyrazol-4-yl)-2-[6-(1,2,3,6-tetrahydropyridin-4-yl)[1,3]thiazolo[4,5-c]pyridin-2-yl]phenol] | 1000 to 3000
34 | CN1C[C@H](F)[C@H](Nc2nc3nnc(-c4ccc(-c5cn[nH]c5)cc4O)cc3s2)C1 [Compound 336, 2-(6-{[(3R,4S)-4-fluoro-1-methylpyrrolidin-3-yl]amino}[1,3]thiazolo[4,5-c]pyridazin-3-yl)-5-(1H-pyrazol-4-yl)phenol] | 1000 to 3000
